Experimental data published in patent KR20160066169A, “이카리시드 b2를 유효성분으로 함유하는 백모 방지용 및 백반증 개선용 조성물” ((주)아모레퍼시픽, priority 2014, dated 2016).
Read-outs that look alike come from different tables or passages of the source.

Experiments:
Assay type in all cases: cell-based
[1] = system: melanocytes (melan-a) [멜라닌 세포(melan-a)]; experiment: 멜라닌 생성 촉진 효과 시험 (melanin production promoting effect, absorbance at 405 nm); settings: 3 days
MITF = experiment: 멜라노사이트에서의 MITF 발현 촉진 효과 (western blot, 501mel); settings: for activity at 100 µM / activity at 50 ppm: IBMX 100 μM, icariside B2 50 ppm, negative control (DMSO 0.1%) = 100, read-out: MITF expression relative to negative control
[2] = system: tyrosinase [티로시나제(tyrosinase)]; experiment: 멜라노사이트에서의 티로시나제 발현 촉진 효과 (western blot, 501mel); settings: for activity at 100 µM / activity at 50 ppm: IBMX 100 μM, icariside B2 50 ppm, negative control (DMSO 0.1%) = 100, read-out: tyrosinase expression relative to negative control

| Structure (SMILES) | activity at 100 µM ([1]; 72 h, IBMX 100 μM, 37℃, negative control (0.1% DMSO) = 100, read-out: ratio of melanin quantity to negative control) [%] | activity at 100 µM (MITF; 24 h) [%] | activity at 100 µM (MITF; 48 h) [%] | activity at 100 µM (MITF; 72 h) [%] | activity at 100 µM ([2]; 24 h) [%] | activity at 100 µM ([2]; 48 h) [%] | activity at 100 µM ([2]; 72 h) [%] | melanin production promoting effect compared with positive control (result in words) ([1]; 100 ppm vs IBMX 100 μM) | activity at 50 ppm ([1]; 72 h, 50 ppm, 37℃, negative control (0.1% DMSO) = 100, read-out: ratio of melanin quantity to negative control) [%] | activity at 100 ppm ([1]; 72 h, 100 ppm, 37℃, negative control (0.1% DMSO) = 100, read-out: ratio of melanin quantity to negative control) [%] | melanin production (result in words) [1] | MITF protein expression (result in words) (MITF; 50 ppm, 24-72 h) | activity at 50 ppm (MITF; 24 h) [%] | activity at 50 ppm (MITF; 48 h) [%] | activity at 50 ppm (MITF; 72 h) [%] | tyrosinase protein expression (result in words) ([2]; 50 ppm, 24-72 h) | activity at 50 ppm ([2]; 24 h) [%] | activity at 50 ppm ([2]; 48 h) [%] | activity at 50 ppm ([2]; 72 h) [%] |
| --- | --- | --- | --- | --- | --- | --- | --- | --- | --- | --- | --- | --- | --- | --- | --- | --- | --- | --- | --- |
| CC(C)Cn1c(=O)n(C)c(=O)c2[nH]cnc21 [IBMX, 3-isobutyl-1-methylxanthine, reference compound] | 116 | 121 | 98 | 224 | 160 | 149 | 298 | – | – | – | – | – | – | – | – | – | – | – | – |
| CC(=O)C=CC12OC1(C)CC(OC1OC(CO)C(O)C(O)C1O)CC2(C)C (stereo not shown) [이카리시드 B2, icariside B2] | – | – | – | – | – | – | – | 양성대조군보다 높은 멜라닌 생성 촉진 효과 | 103 | 127 | 멜라닌 생성이 늘어났으며 | 단백질 발현을 상승시킴 | 85 | 107 | 115 | 단백질 발현을 상승시킴 | 126 | 132 | 180 |
